According to ChEMBL document CHEMBL5724696, “Autophagy assay results for EUbOPEN Chemogenomics Library” (2024):

Legend:
Assay type in all cases: functional, Homo sapiens
U2OS [1] = experiment: (§1) Here: values are normalized to the negative (DMSO; defined as 0% autophagy induction) and positive (250nM Torin1; mTOR inhibitor; defined as maximal inducer of autophagy = 100%) control compounds and represented as % of autophagy induction. […] The impact of autophagy induction on cells is complex and depends on the affected target. As such, the magnitude of a phenotype may not be equally mirrored in the %-value of autophagy induction and vice versa. The dynamics of the induction may indicate the mode of activation: e.g. activation via phosphorylation or a signaling cascade may occur fast, while activation via transcription factors may take considerably longer. […] Of note, treatment concentrations may be sub-optimal for specific compounds, leading to false negative annotations.; conditions: Culturing Media DMEM, 1 % Penicillin/Streptomycin, 10% Fetal bovin serum Add-On: No, Screening Media Control DMEM, Screening Media Samples DMEM
U2OS [2] = experiment: as §1; conditions: Culturing Media DMEM, 1 % Penicillin/Streptomycin, 10% Fetal bovin serum Add-On: No, Screening Media Control DMEM, Screening Media Samples DMEM; remark: listed apart in the source
TERT-RPE1 = experiment: as §1; conditions: Compound Concentration 1 uM, Culturing Media DMEM/F12 (1:1), 1 % Penicillin/Streptomycin, 10% Fetal bovin serum Add-On: No, Screening Media Control DMEM/F12 (1:1), Screening Media Samples DMEM/F12 (1:1)
[3] = Compound Concentration 0.5 uM, Timepoint 12 hours
[4] = Compound Concentration 0.5 uM, Timepoint 24 hours
[5] = Compound Concentration 0.5 uM, Timepoint 36 hours
[6] = Compound Concentration 0.5 uM, Timepoint 60 hours
[7] = Compound Concentration 2 uM, Timepoint 12 hours
[8] = Compound Concentration 2 uM, Timepoint 24 hours
[9] = Compound Concentration 2 uM, Timepoint 36 hours
[10] = Compound Concentration 2 uM, Timepoint 60 hours
[11] = Compound Concentration 10 uM, Timepoint 12 hours
[12] = Compound Concentration 10 uM, Timepoint 24 hours
[13] = Compound Concentration 10 uM, Timepoint 36 hours
[14] = Compound Concentration 10 uM, Timepoint 60 hours

Row | SMILES | autophagy induction (U2OS [1]; [3]) [%] | autophagy induction (U2OS [1]; [4]) [%] | autophagy induction (U2OS [1]; [5]) [%] | autophagy induction (U2OS [1]; [6]) [%] | autophagy induction (U2OS [1]; [7]) [%] | autophagy induction (U2OS [1]; [8]) [%] | autophagy induction (U2OS [1]; [9]) [%] | autophagy induction (U2OS [1]; [10]) [%] | autophagy induction (U2OS [1]; [11]) [%] | autophagy induction (U2OS [1]; [12]) [%] | autophagy induction (U2OS [1]; [13]) [%] | autophagy induction (U2OS [1]; [14]) [%] | autophagy induction (U2OS [2]; [3]) [%] | autophagy induction (U2OS [2]; [4]) [%] | autophagy induction (U2OS [2]; [5]) [%] | autophagy induction (U2OS [2]; [6]) [%] | autophagy induction (U2OS [2]; [7]) [%] | autophagy induction (U2OS [2]; [8]) [%] | autophagy induction (U2OS [2]; [9]) [%] | autophagy induction (U2OS [2]; [10]) [%] | also measured
1 | COc1cccc(-c2c(C)n(Cc3c(F)cccc3C(F)(F)F)c(=O)n(C[C@H](NCCCC(=O)[O-])c3ccccc3)c2=O)c1F.[Na+] [ELAGOLIX SODIUM] | -3.352 | -3.1643 | -0.7483 | -1111.24 | -6.63 | -5.163 | -4.643 | 114.391 | -2.89 | -3.023 | -0.9947 | 114.218 | 4.133 | 4.438 | 6.469 | -7.02 | 12.3647 | 8.125 | 1.282 | -8.542 | autophagy induction (U2OS [2]; [11]): -6.525%; autophagy induction (U2OS [2]; [12]): -4.485%; autophagy induction (U2OS [2]; [13]): -1.897%; autophagy induction (U2OS [2]; [14]): -2.895%
2 | N[C@H](C(=O)O)c1ccc(C(=O)O)c(C(=O)O)c1 | -6.378 | -5.676 | -3.938 | 114.48 | 4.454 | -1.856 | -1.714 | 114.31 | 50.3971 | 15.7905 | 7.703 | 113.866 | -5.827 | -6.791 | -11.2953 | -15.497 | 2.006 | -3.7569 | 0.8793 | 2.43 | autophagy induction (U2OS [2]; [11]): -6.462%; autophagy induction (U2OS [2]; [12]): -8.325%; autophagy induction (U2OS [2]; [13]): -2.853%; autophagy induction (U2OS [2]; [14]): -1.815%
3 | O=C1O[C@]2(CC[C@H](C(=O)Nc3ccn(-c4ccccc4F)n3)CC2)c2cnccc21 [MK-0557] | 3.984 | 1.732 | 0.4919 | 114.165 | 0.04111 | -0.7319 | -2.648 | 114.407 | 2.947 | -1.736 | -2.592 | 114.447 | 2.719 | -3.33 | -1.0176 | -10.434 | 13.2836 | 10.9196 | 6.623 | 2.549 | autophagy induction (U2OS [2]; [11]): 4.4586%; autophagy induction (U2OS [2]; [12]): 4.355%; autophagy induction (U2OS [2]; [13]): 0.9374%; autophagy induction (U2OS [2]; [14]): -12.6304%
4 | CC(C)(N)C(=O)N[C@H](COCc1ccccc1)C(=O)N1CCC2(CC1)CN(S(C)(=O)=O)c1ccccc12.CS(=O)(=O)O [IBUTAMOREN MESYLATE] | 0.1513 | -2.852 | -1.869 | 114.207 | 2.232 | 1.174 | -0.1276 | 113.997 | 21.0515 | 11.8835 | 9.457 | 114.001 | -8.194 | -5.824 | -3.752 | 0.1138 | -4.688 | -1.11 | 1.85 | -0.8182 | autophagy induction (U2OS [2]; [11]): 7.887%; autophagy induction (U2OS [2]; [12]): 2.743%; autophagy induction (U2OS [2]; [13]): 7.197%; autophagy induction (U2OS [2]; [14]): 14.096%
5 | CCCCCNC(=O)NS(=O)(=O)c1cc([N+](=O)[O-])ccc1NC1CCCCC1 | -2.4637 | -2.287 | -1.179 | 114.19 | -2.891 | -2.398 | -2.2883 | 114.254 | -6.232 | -4.153 | -3.872 | 114.439 | 1.311 | 2.21 | -1.399 | -21.9841 | 12.2747 | 3.055 | 0.8075 | -5.198 | autophagy induction (U2OS [2]; [11]): 0.1217%; autophagy induction (U2OS [2]; [12]): -4.73%; autophagy induction (U2OS [2]; [13]): -6.08%; autophagy induction (U2OS [2]; [14]): -12.7619%
6 | Cc1cc(NC(=O)Nc2ccc(N(C)C)cc2)c2cc(F)cc(F)c2n1 | -2.687 | -3.664 | -3.669 | 114.219 | -0.9187 | -2.555 | -1.904 | 114.2 | 1.036 | -2.2709 | 0.4658 | 113.441 | -3.035 | -2.6114 | -4.581 | -2.138 | -10.8002 | -10.6502 | -6.099 | -2.686 | autophagy induction (U2OS [2]; [11]): 2.643%; autophagy induction (U2OS [2]; [12]): 9.654%; autophagy induction (U2OS [2]; [13]): 13.8869%; autophagy induction (U2OS [2]; [14]): 31.5866%
7 | CC1(C)CCC(C)(C)c2cc(NC(=O)c3ccc(C(=O)O)cc3)ccc21 [TAMIBAROTENE] |  |  |  |  |  |  |  |  |  |  |  |  |  |  |  |  |  |  |  |  | autophagy induction (TERT-RPE1; Timepoint 12 hours): -36.8107%; autophagy induction (TERT-RPE1; Timepoint 24 hours): -29.3713%; autophagy induction (TERT-RPE1; Timepoint 36 hours): -7.633%; autophagy induction (TERT-RPE1; Timepoint 60 hours): 34.9259%
8 | CCOC(=O)Nc1ccc2c(c1)N(C(=O)CN(CC)CC)c1ccccc1CC2 |  |  |  |  |  |  |  |  |  |  |  |  |  |  |  |  |  |  |  |  | autophagy induction (TERT-RPE1; Timepoint 12 hours): -0.6682%; autophagy induction (TERT-RPE1; Timepoint 24 hours): 2.4649%; autophagy induction (TERT-RPE1; Timepoint 36 hours): 6.3561%; autophagy induction (TERT-RPE1; Timepoint 60 hours): 1.708%
9 | CCOC(=O)N1CCC(CN(Cc2ccc(Cl)cc2)Cc2ccc([N+](=O)[O-])s2)C1 (centres undefined) [SR9009] |  |  |  |  |  |  |  |  |  |  |  |  |  |  |  |  |  |  |  |  | autophagy induction (TERT-RPE1; Timepoint 12 hours): -2.29%; autophagy induction (TERT-RPE1; Timepoint 24 hours): -4.7715%; autophagy induction (TERT-RPE1; Timepoint 36 hours): -4.329%; autophagy induction (TERT-RPE1; Timepoint 60 hours): -0.7127%
10 | O=S(=O)(Nc1ccc(C(O)(C(F)(F)F)C(F)(F)F)cc1)c1cccs1 |  |  |  |  |  |  |  |  |  |  |  |  |  |  |  |  |  |  |  |  | autophagy induction (TERT-RPE1; Timepoint 12 hours): 37.5142%; autophagy induction (TERT-RPE1; Timepoint 24 hours): -2.586%; autophagy induction (TERT-RPE1; Timepoint 36 hours): 11.7189%; autophagy induction (TERT-RPE1; Timepoint 60 hours): -15.4416%
11 | O=C(O)c1ccnc(N2CC(O)(c3ccc(OCc4c(-c5c(Cl)cccc5Cl)noc4C4CC4)cc3Cl)C2)c1 [CILOFEXOR] |  |  |  |  |  |  |  |  |  |  |  |  |  |  |  |  |  |  |  |  | autophagy induction (TERT-RPE1; Timepoint 12 hours): 6.577%; autophagy induction (TERT-RPE1; Timepoint 24 hours): 4.142%; autophagy induction (TERT-RPE1; Timepoint 36 hours): 10.1768%; autophagy induction (TERT-RPE1; Timepoint 60 hours): 9.429%
